Each block holds one compound with its values, some of them ahead of it.
Columns and labels:
[1] = Drug metabolism in rat liver microsomes at 10 uM; assay type: ADME, Microsome; settings: read-out: Drug metabolism
[2] = biological target: Metabotropic glutamate receptor 5 (Homo sapiens, UniProt P41594); assay: Antagonist activity at mGlu5 receptor; assay type: functional
[3] = Half life in Sprague-Dawley rat at 1 mg/kg, iv; assay type: ADME, organism-based; design: dose 1 mg/kg, route intravenous; settings: in vivo
[4] = Oral bioavailability in Sprague-Dawley rat at 5 mg/kg; assay type: ADME, organism-based; settings: in vivo
[5] = Volume of distribution at steady state in Sprague-Dawley rat at 1 mg/kg, iv; assay type: ADME, organism-based; design: dose 1 mg/kg, route intravenous; settings: in vivo, read-out: Vdss
[6] = Plasma clearance in Sprague-Dawley rat at 1 mg/kg, iv; assay type: ADME, organism-based; design: dose 1 mg/kg, route intravenous
[7] = Intrinsic clearance in Wistar rat; assay type: ADME, organism-based; settings: in vivo
[8] = Volume of distribution at steady state in Wistar rat; assay type: ADME, organism-based; settings: in vivo, read-out: Vdss
in vivo [9] = settings: Wistar, rat
in vivo [10] = settings: Wistar, rat, po
Description: Oral bioavailability in Wistar rat

Metabotropic glutamate receptor 5, sequence (P41594 whole entry): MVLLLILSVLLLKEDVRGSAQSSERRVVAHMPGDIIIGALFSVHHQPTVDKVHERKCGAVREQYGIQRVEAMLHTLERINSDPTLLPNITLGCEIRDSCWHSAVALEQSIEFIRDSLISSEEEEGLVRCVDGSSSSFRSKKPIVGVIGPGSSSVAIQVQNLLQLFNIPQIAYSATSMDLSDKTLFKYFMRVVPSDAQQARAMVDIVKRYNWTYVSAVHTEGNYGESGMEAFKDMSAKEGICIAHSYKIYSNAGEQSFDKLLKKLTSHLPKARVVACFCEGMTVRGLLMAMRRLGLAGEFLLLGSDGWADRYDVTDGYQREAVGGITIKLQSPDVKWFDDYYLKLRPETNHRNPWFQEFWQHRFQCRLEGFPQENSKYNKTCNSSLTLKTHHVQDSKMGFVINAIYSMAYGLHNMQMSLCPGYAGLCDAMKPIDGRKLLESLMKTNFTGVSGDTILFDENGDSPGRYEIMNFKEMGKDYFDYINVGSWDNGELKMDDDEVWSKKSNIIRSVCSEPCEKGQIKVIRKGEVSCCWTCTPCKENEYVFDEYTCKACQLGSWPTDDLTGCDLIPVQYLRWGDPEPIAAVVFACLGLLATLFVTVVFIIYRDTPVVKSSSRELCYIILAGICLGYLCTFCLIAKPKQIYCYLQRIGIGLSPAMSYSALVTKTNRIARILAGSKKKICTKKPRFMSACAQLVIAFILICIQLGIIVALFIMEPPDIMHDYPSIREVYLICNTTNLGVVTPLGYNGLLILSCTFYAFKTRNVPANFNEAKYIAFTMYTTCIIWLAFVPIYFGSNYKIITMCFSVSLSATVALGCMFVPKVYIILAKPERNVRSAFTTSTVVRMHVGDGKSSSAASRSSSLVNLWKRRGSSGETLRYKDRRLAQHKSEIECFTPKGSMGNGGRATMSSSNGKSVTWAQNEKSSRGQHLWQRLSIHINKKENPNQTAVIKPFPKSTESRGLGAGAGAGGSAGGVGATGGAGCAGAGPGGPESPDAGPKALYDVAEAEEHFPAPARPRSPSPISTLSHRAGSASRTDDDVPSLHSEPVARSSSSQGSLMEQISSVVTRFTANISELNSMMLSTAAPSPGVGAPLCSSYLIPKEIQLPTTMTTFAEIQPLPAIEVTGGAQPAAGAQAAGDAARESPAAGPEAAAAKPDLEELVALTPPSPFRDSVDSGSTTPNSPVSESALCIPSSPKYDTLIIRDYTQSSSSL
Description for physchem: Dissociation constant, pKa of the compound

SMILES: c1cnccn1 [PYRAZINE]
- pKa (physchem): 0.4

SMILES: Cc1cccc(NC(=O)c2nc(C)sc2Nc2cccnc2)n1
- Ki [2]: 9 nM

SMILES: C[C@H](C1CC1)n1cc(C#N)nc(Nc2c(Cl)cc(OC(F)F)cc2Cl)c1=O
- metabolised at 10 µM [1]: 1%

SMILES: Cc1cc(NC(=O)c2nc(C)sc2Nc2cccnc2)ccn1
- Ki [2]: 44 nM

SMILES: O=C(Nc1nc(-c2ccc(F)c(C(F)(F)F)c2)c(F)s1)c1cnc(N2CCC(C(=O)O)CC2)c(Cl)c1
- half-life [3]: 1.67 h
- bioavailability [4]: 73%
- Vd [5]: 0.34 L/kg
- clearance [6]: 2.79 mL/min/kg

SMILES: CC(C)N1CCC(Oc2ccc3[nH]c(C(=O)N4CCOCC4)cc3c2)CC1
- CLint scaled [7]: 50 mL/min/kg
- Vd [8]: 3.5 L/kg
- half-life (in vivo [9]): 1.1 h

SMILES: c1cnsc1 [ISOTHIAZOLE]
- pKa (physchem): -0.51

SMILES: O=C(Nc1nc(-c2ccc(F)c(C(F)(F)F)c2)cs1)c1cnc(N2CCC(C(=O)O)CC2)c(Cl)c1
- half-life [3]: 1.34 h
- bioavailability [4]: 66.8%
- Vd [5]: 0.83 L/kg
- clearance [6]: 6.89 mL/min/kg

SMILES: O=C(Nc1nc(-c2ccc(F)c(C(F)(F)F)c2)ns1)c1cnc(N2CCC(C(=O)O)CC2)c(Cl)c1
- half-life [3]: 1.09 h
- bioavailability [4]: 73.5%
- Vd [5]: 0.22 L/kg
- clearance [6]: 1.49 mL/min/kg

SMILES: Cc1nc(C(=O)Nc2ccc(F)cn2)c(Nc2cncnc2)s1
- Ki [2]: 31 nM

SMILES: C1CNC1 [AZETIDINE]
- pKa (physchem): 10.7

SMILES: c1cocn1 [OXAZOLE]
- pKa (physchem): 0.8

SMILES: CC(C)N1CCC(Oc2ccc3[nH]c(C(=O)N4CCC(F)(F)CC4)cc3c2)CC1
- CLint scaled [7]: 18 mL/min/kg
- Vd [8]: 6 L/kg
- bioavailability (in vivo [10]): 100%

SMILES: C1CCCNCC1 [AZEPANE]
- pKa (physchem): 10.9

Results, then the compound that gave them:

- metabolised at 10 µM [1]: 20%
SMILES: C[C@@H](C1CC1)n1cc(Cl)nc(Nc2c(Cl)cc(OC(F)F)cc2Cl)c1=O

- metabolised at 10 µM [1]: 4%
SMILES: C[C@@H](C1CC1)n1cc(Br)nc(Nc2c(Cl)cc(OC(F)F)cc2Cl)c1=O

- Ki [2]: 111 nM
SMILES: Cc1nc(C(=O)Nc2ccc(O)c(C)n2)c(Nc2cccnc2)s1

- pKa (physchem): 2.52
SMILES: c1cn[nH]c1 [PYRAZOLE]

- Ki [2]: 81 nM
SMILES: Cc1cc(NC(=O)c2nc(C)sc2Nc2cncnc2)ccn1

- Ki [2]: 13 nM
SMILES: Cc1nc(C(=O)Nc2ccc(F)cn2)c(Nc2cccnc2)s1

- pKa (physchem): 2.3
SMILES: c1ccnnc1 [PYRIDAZINE]

- Ki [2]: 67 nM
SMILES: Cc1nc(C(=O)Nc2cccc(CO)n2)c(Nc2cccnc2)s1

- metabolised at 10 µM [1]: 7%
SMILES: Cc1cn([C@H](C)C2CC2)c(=O)c(Nc2c(Cl)cc(OC(F)F)cc2Cl)n1
